Measured values taken from patent US20020127228A1, “PGT and apoptosis” (WELFIDE CORPORATION, priority 1998, published 2002).

Assays:
[1] = test system: rat cerebral cortical neurons; experiment: Apoptosis induced by amyloid beta peptide in rat cerebral cortical neurons, Hoechst 33342; assay type: cell-based
Procedure: The cortex region of embryonic day 17 or 18 rat cerebrum was extracted on ice. Cells were dispersed using a neuron dispersal solution (Sumilon) after sectioning. Afterwards, cells were dispersed to a density of 1.5×10^5 cells/cm^2 in a culturing flask that was coated with polyethyleneimine beforehand. After 4 days of culturing, the following experiment was provided. Therefore, as the culture medium, Neurobasal medium (Gibco) adding with B27 supplement (1/50 volume), 2-mercaptoethanol (27.5 μM), L-glutamic acid (25 μM), and glutamine (0.5 mM) was used.
Amyloid beta peptide 25-35 (Aβ25-35) was dissolved in distilled water to a concentration of 1 mM, incubated for 1 week at about 37° C., and Aged-Aβ25-35 was prepared. The induction of apoptosis in neuron was performed by the replacement of the aforementioned culture medium (with the exception of L-glutamicacid) containing 10 μM Aged-Aβ25-35.
4) It was investigated that the suppressing effect of PGE1 on apoptosis induced by amyloid beta peptide. After dissolution of PGE1 in ethanol, when the aforementioned 2) Aged-Aβ25-35 was added to the culture medium, simultaneously PGE1 solution was added to it. The final concentration thereof was 1 μM.
Cells were washed with PBS (−) at 24 hrs after induction of apoptosis and fixed for 30 mins at room temperature using a 1% glutaraldehyde solution (in PBS). Next, cell were washed with PBS (−) two times and followed by incubation with 1 mM Hoechst 33342 solution (in PBS) for 2 mins. Afterwards, observation of nuclear chromatin morphology was conducted using a fluorescence microscope with 4 arbitrary visual fields. Normal cells and apoptotic cells (cell where chromatin fragmentation or condensation was appeared) were counted, and the ratio was calculated as the incidence of apoptosis. The n was 3.
6) The relationship between PGT inhibitors and apoptosis induced by amyloid beta peptide was investigated. BrCG, which is a PGT inhibitor, with a final concentration of 60 μM was added simultaneously with PGE1 but other manners were in accordance with the aforementioned ones in 1)-5).
It was investigated that the influence of PGT antisense on the inhibitory effect of PGE1 against apoptosis induced by amyloid beta peptide. PGT antisense was used as it is with regard to the oligonucleotide in Experiment 3. The addition concentration thereof was 1.5 μM. Incidence of apoptosis was performed in accordance with Experiment 5. Then was 3.
1) Drugs having an inhibitory activity against induction of apoptosis by amyloid beta peptide were investigated. After dissolving test drugs (PGE1, PGK1, PGK2, and bicyclo PGE2) in ethanol, when Aged-Aβ25-35 was added to the culture medium, simultaneously test drug solution were added to it. But other manners were in accordance with Experiment 5. Ratio of normal cells and apoptotic cells allowed calculation of the rate of inhibition of apoptosis induction.

NRK52E cells [2] = experiment: Apoptosis induced by NO donor NOC12 in NRK52E kidney cells; assay type: cell-based, rat; conditions: NOC12 0.4 mM, 24 hrs, n 5
Procedure: (§1) 1) Apoptosis was induced by NO (nitrogen monoxide) in kidney cells. NRK52E cells, which are established from a rat renal tubule epithelial cell line, mainly derived from distal were cultured for 24 hours with a chamber slide that was coated with type-I collagen. Afterwards, the cultured medium was changed to a serum-free medium, and apoptosis was induced by addition of NOC12 (0.4 mM) or S-nitroso L-glutathione (GSNO: 1 mM), which are NO donors.
(§2) 4) Inhibitory effect of PGE1 to the induction of apoptosis in kidney cells was investigated PGE1 was added simultaneously with the addition of a NO donor to a final concentration of 1 or 10 μM. After 24 hrs, cells were fixed with a 1% glutaraldehyde solution and stained with Hoechst 33342. Three visual fields were selected arbitrarily per slide, and the ratio of the cells count where nuclear fragmentation and condensation appeared was calculated with respect to the total cells in the field (magnification: 400x). The n was 5.

NRK52E cells [3] = experiment: Apoptosis induced by NO donor GSNO in NRK52E kidney cells; assay type: cell-based, rat
Procedure: as §1, §2
5) The relationship between PGT inhibitors and kidney cell apoptosis induced by GSNO was examined. With a final concentration of BrCG, which is a PGT inhibitor, of 60 μM, manners other than simultaneous addition with GSNO and PGE1 were in accordance with the aforementioned ones in 4). The PGE1 final concentration was 1 μM. The n was 3.
1) Drugs having suppressing activity on apoptosis inducted in kidney cells by an NO donor were investigated. PGK1 and bicyclo PGE2 were used as test drugs, but other manners were in accordance with Experiment 8. The final concentration of the test drugs was 1 μM. The n was 5.
2) It was investigated the effects of a PGT inhibitor on the apoptosis-suppressing activity of PGK1 and bicyclo PGE2 in kidney cells. With a final concentration of BrCG, which is a PGT inhibitor, of 60 μM, manners other than simultaneous addition of GSNO and test drugs were in accordance with the aforementioned methods in 1). The n was 4.

SAPK/JNK = SAPK/JNK activation in PC12 cells after NGF withdrawal, Western blot; assay type: cell-based, rat; parameters: key to Degree of luminescence: +++ is extremely strong; + is confirmed luminescence; ± is poor luminescence; conditions: for Degree of luminescence: phosphorylated JNK band
Procedure: 4) Intercellular signals via SAPK/JNK Stress-activated protein kinase/Jun N-terminal kinase (abbreviated SAPK/JNK) is associated with apoptosis induction. Thus, intercellular signals within cells via SAPK/JNK were investigated based upon effects with respect to variations in SAPK/JNK activity.
The present experiment was performed with Western blot analysis. Individual additives were added to cell culturing medium for PC12 cells in accordance with the aforementioned experiment. Culturing was performed for 1-4 hrs after withdrawal of NGF. PC12 cells were lysed with a buffer solution, centrifuged, and the supernatant of cell lysate was prepared. After said supernatant was incubated with JNK 1 polyclonal antibodies (Santa Cruz Biotechnology) at 4° C. for 1 hr. Protein A sepharose was added to it. The resultant was incubated for 1 hr and the immunoprecipitate as described below was provided. […] of cell lysate was conducted with SDS-PAGE electrophoresis, and transferred to a nylon membrane (Amersham Pharmacia Biotech). Blotting of phosphorylated (active) JNK antibodies (Santa Cruz Biotechnology) was performed with this membrane, and bands were detected in accordance with the instruction manual. Intercellular signals within cells were amplified by chemiluminescence and auto radioactivity methods (FCL, Amersham Pharmacia Biotech).

Q: What does the source list for `CCCCC[C@H](O)/C=C/[C@H]1[C@H](O)CC(=O)[C@@H]1CCCCCCC(=O)O` [PGE1, prostaglandin E1]?
A: Effect on apoptosis induced by amyloid beta peptide (in words) [1]: suppressed apoptosis inducted by amyloid beta peptide; Incidence of apoptosis (%) ([1]; Experiment 5, PGE1 1 μM, 10 μM Aged-Aβ25-35, 24 hrs, n 3): 23 ± 2 %; Incidence of apoptosis (%) ([1]; Experiment 6, PGE1, Aged-Aβ25-35, n 3): 23 ± 2 %; Inhibition of apoptosis induction (%) ([1]; Experiment 7, test drug added with Aged-Aβ25-35): 38.2%; Incidence of apoptosis (%) (NRK52E cells [2]; PGE1 1 μM): 11 ± 2 %; Incidence of apoptosis (%) (NRK52E cells [2]; PGE1 10 μM): 6 ± 1 %; Effect on apoptosis in kidney cells (in words) (NRK52E cells [3]; NO donor GSNO): suppressed induction of apoptosis in kidney cells; Incidence of apoptosis (%) (NRK52E cells [3]; Table 11, GSNO 1 mM, PGE1 1 μM, 24 hrs, n 5): 10 ± 2 %; Incidence of apoptosis (%) (NRK52E cells [3]; Table 11, GSNO 1 mM, PGE1 10 μM, 24 hrs, n 5): 11 ± 3 %; Incidence of apoptosis (%) (NRK52E cells [3]; Table 12, GSNO, PGE1 1 μM, n 3): 8 ± 2%; Effect on SAPK/JNK activation (in words) (SAPK/JNK; 1 hr after NGF withdrawal): the activation was suppressed; Degree of luminescence (SAPK/JNK; PGE1 0.1 μM): +; Degree of luminescence (SAPK/JNK; PGE1 1 μM): ±
